Here are results for 2 molecules from patent publication US20250248954A1, “PHARMACEUTICAL COMPOSITION FOR PREVENTING OR TREATING DIABETIC STROKE, CONTAINING RAGE ANTAGONIST AND AGE SCAVENGER” (AJOU UNIVERSITY INDUSTRY-ACADEMIC COOPERATION FOUNDATION, priority 2022, published 2025).

Assay type in all cases: in vivo, SD rats
In one assay the test system is MGH1. The assay can be described thus: MGH1 expression in brain tissue of diabetic tMCAO groups by immunohistochemical staining and Western blot. The following applies: diabetic rats, day 1 after MCAO; 100 mg/kg orally once a day from day 4; vs vehicle group; FIG. 8. As for the experimental part:
(§1) Specifically, these were carried out as follows. To produce an experimental animal model of diabetes mellitus (DM), 7-week-old male SD rats were fasted for 16 hours. Thereafter, streptozotocin (STZ) was administered to the rats, and on day 3, blood glucose levels were measured. The rats were divided into a vehicle group and an aminoguanidine (AG) group, which had similar average blood glucose levels, and were maintained for 34 days. The AG group was orally administered 100 mg/kg of aminoguanidine once a day starting from day 4 after diabetes induction, and was finally administered aminoguanidine within 30 minutes after MCAO. On day 1 after MCAO, the mNSS test shown in FIG. 9 was performed, and then cerebral infarction was checked using an animal MRI system. Next, the rats were sacrificed, and plasma and brain tissue were collected and analyzed. For comparison, protein expression in the brain tissue from normal rats (sham) was used as a control.
Day 1 after MCAO, the expression levels of MGH1 in the brain tissues from the diabetic groups were analyzed by immunohistochemical staining and Western blot analysis.
Background: Immunoblotting shows a protein as a band on a membrane.

For assay [1], the system named is experimental animal model of diabetes mellitus (DM) subjected to tMCAO. Briefly: Diabetic (STZ, 34 days) rat 30-minute tMCAO model: body weight, blood glucose, glycated hemoglobin, brain injury by MRI. The note with it: diabetic rats, vs DM-vehicle. The method, then:
as §1, with “control. The impact on diabetes was evaluated by checking changes in body weight and blood glucose levels once a week after diabetes induction and checking final glycated hemoglobin levels after MCAO. To evaluate brain injury, the volume of cerebral infarction was determined using an animal MRI system.” for “control.”

In assay [2] the test system is RAGE, AGE, methylglyoxal (MGH1), GFAP. The assay can be described thus: Western blot analysis of protein expression in brain tissue, hyperglycemic tMCAO group. The note with it: HG, 30 min MCAO, 10 mg/kg i.p. As for the experimental part:
(§2) Specifically, these were carried out as follows. To produce an experimental animal model, 7-week-old male SD rats were fasted for 16 hours. Thereafter, streptozotocin (STZ) was administered to the rats, and after 3 days, fasting blood glucose levels were measured in the tail vein, and only animals with a blood glucose level of 300 mg/dl or more were used as a hyperglycemic model. A cerebral ischemia model was produced by subjecting the produced hyperglycemic model or a normoglycemic model to temporary middle cerebral artery occlusion (tMCAO). For MCAO, a coated suture was inserted through the right external carotid artery into the internal carotid artery, and inserted approximately 19 mm up to the middle cerebral artery (MCA). 30 minutes or 2 hours after insertion, the coated suture was removed, and a reperfusion model was used as a cerebral ischemia model. […] The normoglycemic group (NG), after 2 hours of MCAO, was divided into a vehicle group and an FPS-ZM1 group and used in the experiment. The hyperglycemic group (HG), after 30 minutes of MCAO, was divided into a vehicle group and an FPS-ZM1 group and used in the experiment. The FPS-ZM1 group in each of the normoglycemic group and the hyperglycemic group was injected intraperitoneally with 10 mg/kg of FPS-ZM1 within 5 minutes after MCAO reperfusion and injected with FPS-ZM1 once a day. After surgery, the mNSS (modified neurological severity score) test shown in FIG. 9 and weight measurement were conducted at a certain time every day to check body weight changes and neurobehavioral deficits of the experimental animals. In addition, rats were sacrificed 3 days after MCAO, and plasma and brain tissue were collected and analyzed. After all experiments were completed, the protein expression levels of RAGE, AGE, and methylglyoxal (MGH1) in the brain tissue from each experimental group were analyzed by Western blot analysis. For comparison, protein expression in the brain tissue from normal rats (sham) was used as a control.

In assay [3] the test system is neuronal cell death, astrocytes and microglia, AGE and MGH1 in the cerebral cortex. The assay can be described thus: Cresyl violet and immunohistochemical staining of cerebral cortex, hyperglycemic tMCAO group. The following applies: HG, 30 min MCAO; 10 mg/kg i.p.; FIG. 4. As for the experimental part: (§3) Specifically, these were carried out as follows. To produce an experimental animal model, 7-week-old male SD rats were fasted for 16 hours. Thereafter, streptozotocin (STZ) was administered to the rats, and after 3 days, fasting blood glucose levels were measured in the tail vein, and only animals with a blood glucose level of 300 mg/dl or more were used as a hyperglycemic model. A cerebral ischemia model was produced by subjecting the produced hyperglycemic model or a normoglycemic model to temporary middle cerebral artery occlusion (tMCAO). For MCAO, a coated suture was inserted through the right external carotid artery into the internal carotid artery, and inserted approximately 19 mm up to the middle cerebral artery (MCA). 30 minutes or 2 hours after insertion, the coated suture was removed, and a reperfusion model was used as a cerebral ischemia model. Since cerebral infarction was rarely found in normoglycemic animals after 30-minute MCAO, a model subjected to 2 hours of MCAO was used and compared with the hyperglycemic group. The normoglycemic group (NG), after 2 hours of MCAO, was divided into a vehicle group and an FPS-ZM1 group and used in the experiment. The hyperglycemic group (HG), after 30 minutes of MCAO, was divided into a vehicle group and an FPS-ZM1 group and used in the experiment. The FPS-ZM1 group in each of the normoglycemic group and the hyperglycemic group was injected intraperitoneally with 10 mg/kg of FPS-ZM1 within 5 minutes after MCAO reperfusion and injected with FPS-ZM1 once a day. After surgery, the mNSS (modified neurological severity score) test shown in FIG. 9 and weight measurement were conducted at a certain time every day to check body weight changes and neurobehavioral deficits of the experimental animals. In addition, rats were sacrificed 3 days after MCAO, and plasma and brain tissue were collected and analyzed.
The degree of neuronal cell death in the cerebral cortex from each experimental group was analyzed using cresyl violet staining. In addition, immunohistochemistry was used to analyze the level of activity of astrocytes and microglia and the expression levels of AGE and MGH1 in the cells.

Assay [4] has as its system ZO-1, occludin, claudin, Tie-2, VEGF, Ang-1, MMP-2, MMP-9. Briefly: Real-time PCR of vascular-related factors in brain tissue after tMCAO. The following applies: 10 mg/kg i.p., FIG. 5. The method, then:
as §3, with “Since cerebral infarction was rarely found in normoglycemic animals after 30-minute MCAO, a model subjected to 2 hours of MCAO was used and compared with the hyperglycemic group.” left out, “The FPS-ZM1 group in each of the normoglycemic group and the hyperglycemic group was injected intraperitoneally with 10 mg/kg of FPS-ZM1 within 5 minutes after MCAO reperfusion and injected with FPS-ZM1 once a day. After surgery, the mNSS (modified neurological severity score) test shown in FIG. 9 and weight measurement were conducted at a certain time every day to check body weight changes and neurobehavioral deficits of the experimental animals.” left out
In general terms: In qPCR the cycle at which signal appears reflects the starting amount.

The subject of assay [5] is neuronal cell death in the cerebral cortex. The assay can be described thus: Cresyl violet staining of cerebral cortex, normoglycemic tMCAO group. The following applies: NG, 2 h MCAO; 10 mg/kg i.p.; vs sham group; FIG. 4. As for the experimental part: Specifically, these were carried out as follows. To produce an experimental animal model, 7-week-old male SD rats were fasted for 16 hours. Thereafter, streptozotocin (STZ) was administered to the rats, and after 3 days, fasting blood glucose levels were measured in the tail vein, and only animals with a blood glucose level of 300 mg/dl or more were used as a hyperglycemic model. A cerebral ischemia model was produced by subjecting the produced hyperglycemic model or a normoglycemic model to temporary middle cerebral artery occlusion (tMCAO). For MCAO, a coated suture was inserted through the right external carotid artery into the internal carotid artery, and inserted approximately 19 mm up to the middle cerebral artery (MCA). 30 minutes or 2 hours after insertion, the coated suture was removed, and a reperfusion model was used as a cerebral ischemia model. Since cerebral infarction was rarely found in normoglycemic animals after 30-minute MCAO, a model subjected to 2 hours of MCAO was used and compared with the hyperglycemic group. […] In addition, rats were sacrificed 3 days after MCAO, and plasma and brain tissue were collected and analyzed.
The degree of neuronal cell death in the cerebral cortex from each experimental group was analyzed using cresyl violet staining. […]

In assay [6] the test system is RAGE, AGE, methylglyoxal (MGH1). Briefly: Western blot analysis of protein expression in brain tissue, normoglycemic tMCAO group. The note with it: NG, 2 h MCAO, 10 mg/kg i.p. The method, then: as §2
Assay [7] deals with hyperglycemic model subjected to temporary middle cerebral artery occlusion (tMCAO). The assay can be described thus: Hyperglycemic (STZ) rat 30-minute tMCAO cerebral ischemia model: body weight, mNSS test, brain injury (cresyl violet). The note with it: 30 min MCAO, 10 mg/kg i.p. once a day. As for the experimental part:
as §3, with “Since cerebral infarction was rarely found in normoglycemic animals after 30-minute MCAO, a model subjected to 2 hours of MCAO was used and compared with the hyperglycemic group.” left out
(§4) After performing MCAO, body weight measurement and the mNSS test were performed at the same time every day.
(§5) To evaluate brain injury, the volume of cerebral infarction was determined by staining the entire brain with cresyl violet at 1-mm intervals.

The subject of assay [8] is normoglycemic model subjected to temporary middle cerebral artery occlusion (tMCAO). Briefly: Normoglycemic rat 2-hour tMCAO cerebral ischemia model: body weight, brain injury (cresyl violet). The note with it: 2 h MCAO, 10 mg/kg i.p. once a day. As for the experimental part:
as §3, with “Since cerebral infarction was rarely found in normoglycemic animals after 30-minute MCAO, a model subjected to 2 hours of MCAO was used and compared with the hyperglycemic group.” left out
as §4, §5

The mark [9] stands for this setting: HG, 3 days after MCAO, vs HG-vehicle, cresyl violet.
Setting [10] is: NG, 3 days after MCAO, vs NG-vehicle.

Take `N=C(N)NN` [AG, aminoguanidine]: the “expression level of MGH1 in brain tissue (immunohistochemical staining and Western blot)” value in the assay with MGH1 is given as “decreased”. In addition, in assay [1] (30 min MCAO on day 34, 100 mg/kg orally once a day from day 4, day 1 after MCAO), the “brain injury (volume of cerebral infarction, animal MRI)” value is given as “no significant difference”. In addition, the glycated hemoglobin level entry in assay [1] (100 mg/kg orally once a day from day 4, after MCAO) is recorded as “no significant difference”. In addition, in assay [1] (100 mg/kg orally once a day from day 4), the blood glucose level result is recorded as “no significant difference”. For the same molecule, in assay [1] (100 mg/kg orally once a day from day 4 after diabetes induction), the “change in body weight” value was “not significantly different”.

As to `O=C(c1ccc(Cl)cc1)N(Cc1ccccc1)C1CCCCC1` [FPS-ZM1], the “MGH1 protein expression level in brain tissue (Western blot)” value in assay [2] (between all groups, FIG. 3) was “no significant difference”. Further, in [2] (vs HG-vehicle), the “AGE expression level in brain tissue (Western blot)” value is on record as “significantly lower” and the “GFAP expression level in brain tissue (Western blot)” value is listed as “significantly lower”. Also, in [3], the “activated astrocytes (GFAP staining)” value is recorded as “less observed”, the “intracellular AGE staining” value is recorded as “less observed”, the “intracellular MGH1 staining” value was “less observed” and the “neuronal cell death / number of live cells in cerebral cortex (cresyl violet staining)” value is given as “the number of live cells was larger”. Besides, in [4] (HG, 30 min MCAO, vs HG-vehicle), the “expression level of MMP-9 in brain tissue (real-time PCR)” value is “significantly decreased in the HG-FPS-ZM1 group to a level similar to that in the sham group”. Further, the “expression levels of most vascular-related factors in brain tissue (real-time PCR)” value in [4] (HG-FPS-ZM1 group compared to NG-FPS-ZM1 group) was “increased in the HG-FPS-ZM1 group compared to the NG-FPS-ZM1 group, but there was no significant difference between the groups”. In assay [5], the “degree of neuronal cell death in cerebral cortex (cresyl violet staining)” value is given as “higher”. Also, the “MGH1 protein expression level in brain tissue (Western blot)” value in assay [6] (between all groups, FIG. 3) was “no significant difference”. For the same molecule, in assay [6] (vs NG-vehicle), the “AGE expression level in brain tissue (Western blot)” value is recorded as “no significant difference” and the “RAGE expression level in brain tissue (Western blot)” value is reported as “no significant difference”. In [7] (setting [9]), the “cross-sectional area of injury” value is “significantly decreased” and the “volume of actual injury” value is “more significant in the HG-FPS-ZM1 group than in the HG-vehicle group”. In addition, in assay [7] (HG, vs the other MCAO groups, FIG. 1C), the mNSS score entry is recorded as “significantly lower than those in the other groups”. The “body weight change after MCAO” value in [7] (hyperglycemic group (HG), vs initial body weight before MCAO, FIG. 1B) is “no reduction in body weight”. Besides, in [8] (setting [10]), the “cross-sectional area of injury” value is “difficult through the area photographs to confirm the degree of reduction” and the overall injury volume entry was “decreased slightly in the NG-FPS-ZM1 group, but this decrease was not significant”. For the same molecule, in assay [8] (normoglycemic group (NG), vs initial body weight before MCAO, FIG. 1B), the “body weight change after MCAO” value was “decreased compared to the initial body weight”.
